# Source: ChEMBL document CHEMBL1127612, “Maleimidoethyl 3-(tri-n-butylstannyl)hippurate: a useful radioiodination reagent for protein radiopharmaceuticals to enhance target selective radioactivity localization” (J Med Chem, 1994)
# What was measured:
# Conditions in all cases: in vivo
# Mus musculus [1] = experiment: Tested for biodistribution of radioactivity after 1 hr of intravenous injection in mice blood; format: ADME, organism-based
# Mus musculus [2] = experiment: Tested for biodistribution of radioactivity after 3h of intravenous injection in mice blood; format: ADME, organism-based
# Mus musculus [3] = experiment: Tested for biodistribution of radioactivity after 48 hr of intravenous injection in mice blood; format: ADME, organism-based
# Mus musculus [4] = experiment: Tested for biodistribution of radioactivity after 6 hr of intravenous injection in mice blood; format: ADME, organism-based
# Mus musculus [5] = experiment: Tested for biodistribution of radioactivity after 72 hr of intravenous injection in mice blood; format: ADME, organism-based
# Mus musculus [6] = experiment: Tested for biodistribution of radioactivity after 48 hr of intravenous injection in mice stomach; format: ADME, organism-based
# Mus musculus [7] = experiment: Tested for biodistribution of radioactivity after 6 hr of intravenous injection in mice intestine; format: ADME, organism-based
# Mus musculus [8] = experiment: Tested for biodistribution of radioactivity after 48 hr of intravenous injection in mice intestine; format: ADME, organism-based
# Mus musculus [9] = experiment: Tested for biodistribution of radioactivity after 48 hr of intravenous injection in mice kidneys; format: ADME, organism-based
# Mus musculus [10] = experiment: Tested for biodistribution of radioactivity after 48 hr of intravenous injection in mice liver; format: ADME, organism-based
# Mus musculus [11] = experiment: Tested for biodistribution of radioactivity after 48 hr of intravenous injection in mice lung; format: ADME, organism-based
# Mus musculus [12] = experiment: Tested for biodistribution of radioactivity after 48 hr of intravenous injection in mice neck; format: ADME, organism-based
# Mus musculus [13] = experiment: Tested for biodistribution of radioactivity after 48 hr of intravenous injection in mice spleen; format: ADME, organism-based
# Mus musculus [14] = experiment: Tested for biodistribution of radioactivity after 6 hr of intravenous injection in mice kidneys; format: ADME, organism-based, Kidney
# Mus musculus [15] = experiment: Tested for biodistribution of radioactivity after 6 hr of intravenous injection in mice liver; format: ADME, organism-based
# Mus musculus [16] = experiment: Tested for biodistribution of radioactivity after 6 hr of intravenous injection in mice lung; format: ADME, organism-based
# Mus musculus [17] = experiment: Tested for biodistribution of radioactivity after 6 hr of intravenous injection in mice neck; format: ADME, organism-based
# Mus musculus [18] = experiment: Tested for biodistribution of radioactivity after 10 min of intravenous injection in mice blood; format: ADME, organism-based
# Mus musculus [19] = experiment: Tested for biodistribution of radioactivity after 10 min of intravenous injection in mice kidneys; format: ADME, organism-based
# Mus musculus [20] = experiment: Tested for biodistribution of radioactivity after 10 min of intravenous injection in mice liver; format: ADME, organism-based
# Mus musculus [21] = experiment: Tested for biodistribution of radioactivity after 10 min of intravenous injection in mice lung; format: ADME, organism-based
# Mus musculus [22] = experiment: Tested for biodistribution of radioactivity after 3h of intravenous injection in mice intestine; format: ADME, organism-based
# Mus musculus [23] = experiment: Tested for biodistribution of radioactivity after 3h of intravenous injection in mice kidneys; format: ADME, organism-based, Kidney
# Mus musculus [24] = experiment: Tested for biodistribution of radioactivity after 3h of intravenous injection in mice lung; format: ADME, organism-based
# Mus musculus [25] = experiment: Tested for biodistribution of radioactivity after 3h of intravenous injection in mice neck; format: ADME, organism-based
# Mus musculus [26] = experiment: Tested for biodistribution of radioactivity after 3h of intravenous injection in mice spleen; format: ADME, organism-based
# Mus musculus [27] = experiment: Tested for biodistribution of radioactivity after 3h of intravenous injection in mice stomach; format: ADME, organism-based
# Mus musculus [28] = experiment: Tested for biodistribution of radioactivity after 10 min of intravenous injection in mice neck; format: ADME, organism-based
# Mus musculus [29] = experiment: Tested for biodistribution of radioactivity after 10 min of intravenous injection in mice spleen; format: ADME, organism-based
# Mus musculus [30] = experiment: Tested for biodistribution of radioactivity after 10 min of intravenous injection in mice stomach; format: ADME, organism-based
# Mus musculus [31] = experiment: Tested for biodistribution of radioactivity after 1 hr of intravenous injection in mice intestine; format: ADME, organism-based
# Mus musculus [32] = experiment: Tested for biodistribution of radioactivity after 1 hr of intravenous injection in mice liver; format: ADME, organism-based
# Mus musculus [33] = experiment: Tested for biodistribution of radioactivity after 1 hr of intravenous injection in mice lung; format: ADME, organism-based
# Mus musculus [34] = experiment: Tested for biodistribution of radioactivity after 6 hr of intravenous injection in mice spleen; format: ADME, organism-based
# Mus musculus [35] = experiment: Tested for biodistribution of radioactivity after 6 hr of intravenous injection in mice stomach; format: ADME, organism-based
# Mus musculus [36] = experiment: Tested for biodistribution of radioactivity after 72 hr of intravenous injection in mice intestine; format: ADME, organism-based
# Mus musculus [37] = experiment: Tested for biodistribution of radioactivity after 72 hr of intravenous injection in mice liver; format: ADME, organism-based
# Mus musculus [38] = experiment: Tested for biodistribution of radioactivity after 72 hr of intravenous injection in mice lung; format: ADME, organism-based
# Mus musculus [39] = experiment: Tested for biodistribution of radioactivity after 72 hr of intravenous injection in mice neck; format: ADME, organism-based
# Mus musculus [40] = experiment: Tested for biodistribution of radioactivity after 72 hr of intravenous injection in mice spleen; format: ADME, organism-based
# Mus musculus [41] = experiment: Tested for biodistribution of radioactivity after 72 hr of intravenous injection in mice stomach; format: ADME, organism-based
# Mus musculus [42] = experiment: Tested for biodistribution of radioactivity after 1 hr of intravenous injection in mice neck; format: ADME, organism-based
# Mus musculus [43] = experiment: Tested for biodistribution of radioactivity after 1 hr of intravenous injection in mice spleen; format: ADME, organism-based
# Mus musculus [44] = experiment: Tested for biodistribution of radioactivity after 1 hr of intravenous injection in mice stomach; format: ADME, organism-based
# Mus musculus [45] = experiment: Tested for biodistribution of radioactivity after 24 hr of intravenous injection in mice feces; format: ADME, organism-based
# Mus musculus [46] = experiment: Tested for biodistribution of radioactivity after 24 hr of intravenous injection in mice intestine; format: ADME, organism-based
# Mus musculus [47] = experiment: Tested for biodistribution of radioactivity after 24 hr of intravenous injection in mice kidneys; format: ADME, organism-based, Kidney
# Mus musculus [48] = experiment: Tested for biodistribution of radioactivity after 24 hr of intravenous injection in mice liver; format: ADME, organism-based
# Mus musculus [49] = experiment: Tested for biodistribution of radioactivity after 24 hr of intravenous injection in mice lung; format: ADME, organism-based
# Mus musculus [50] = experiment: Tested for biodistribution of radioactivity after 24 hr of intravenous injection in mice neck; format: ADME, organism-based
# Mus musculus [51] = experiment: Tested for biodistribution of radioactivity after 24 hr of intravenous injection in mice spleen; format: ADME, organism-based
# Mus musculus [52] = experiment: Tested for biodistribution of radioactivity after 24 hr of intravenous injection in mice stomach; format: ADME, organism-based
# Mus musculus [53] = experiment: Tested for biodistribution of radioactivity after 3h of intravenous injection in mice liver; format: ADME, organism-based
# Mus musculus [54] = experiment: Tested for biodistribution of radioactivity after 1 hr of intravenous injection in mice kidneys; format: ADME, organism-based, Kidney
# Mus musculus [55] = experiment: Tested for biodistribution of radioactivity after 24 hr of intravenous injection in mice urine; format: ADME, organism-based
# Mus musculus [56] = experiment: Tested for biodistribution of radioactivity after 24 hr of intravenous injection in mice blood; format: ADME, organism-based
# Mus musculus [57] = experiment: Tested for biodistribution of radioactivity after 10 min of intravenous injection in mice intestine; format: ADME, organism-based
# Mus musculus [58] = experiment: Tested for biodistribution of radioactivity after 72 hr of intravenous injection in mice kidneys; format: ADME, organism-based
smiles,measurement,setting,value
NCCCCC(N)C(=O)NC(=O)c1cccc(I)c1 (stereo not drawn),Dose/g,Mus musculus [1],31.31%
same,Dose/g,Mus musculus [2],26.13%
same,Dose/g,Mus musculus [3],12.64%
same,Dose/g,Mus musculus [4],23.13%
same,Dose/g,Mus musculus [5],11.5%
same,Dose/organ,Mus musculus [6],0.42%
same,Dose/organ,Mus musculus [7],2.43%
same,Dose/organ,Mus musculus [8],0.91%
same,Dose/organ,Mus musculus [9],3.27%
same,Dose/organ,Mus musculus [10],3.84%
same,Dose/organ,Mus musculus [11],4.25%
same,Dose/organ,Mus musculus [12],0.34%
same,Dose/organ,Mus musculus [13],2.35%
same,Dose/organ,Mus musculus [14],6.57%
same,Dose/organ,Mus musculus [15],9.83%
same,Dose/organ,Mus musculus [16],6.9%
same,Dose/organ,Mus musculus [17],0.55%
same,Dose/organ,Mus musculus [18],38.38%
same,Dose/organ,Mus musculus [19],6.31%
same,Dose/organ,Mus musculus [20],15.66%
same,Dose/organ,Mus musculus [21],11.91%
same,Dose/organ,Mus musculus [22],2.88%
same,Dose/organ,Mus musculus [23],7.4%
same,Dose/organ,Mus musculus [24],7.97%
same,Dose/organ,Mus musculus [25],0.72%
same,Dose/organ,Mus musculus [26],5.7%
same,Dose/organ,Mus musculus [27],1.31%
same,Dose/organ,Mus musculus [28],0.66%
same,Dose/organ,Mus musculus [29],7.07%
same,Dose/organ,Mus musculus [30],0.44%
same,Dose/organ,Mus musculus [31],2.03%
same,Dose/organ,Mus musculus [32],14.38%
same,Dose/organ,Mus musculus [33],11.1%
same,Dose/organ,Mus musculus [34],5.48%
same,Dose/organ,Mus musculus [35],1.3%
same,Dose/organ,Mus musculus [36],0.83%
same,Dose/organ,Mus musculus [37],3.34%
same,Dose/organ,Mus musculus [38],3.55%
same,Dose/organ,Mus musculus [39],0.25%
same,Dose/organ,Mus musculus [40],1.83%
same,Dose/organ,Mus musculus [41],0.4%
same,Dose/organ,Mus musculus [42],0.83%
same,Dose/organ,Mus musculus [43],6.38%
same,Dose/organ,Mus musculus [44],0.81%
same,Dose/organ,Mus musculus [45],0.55%
same,Dose/organ,Mus musculus [46],1.06%
same,Dose/organ,Mus musculus [47],4.23%
same,Dose/organ,Mus musculus [48],4.94%
same,Dose/organ,Mus musculus [49],5.55%
same,Dose/organ,Mus musculus [50],0.34%
same,Dose/organ,Mus musculus [51],3.37%
same,Dose/organ,Mus musculus [52],0.49%
same,Dose/organ,Mus musculus [53],11.17%
same,Dose/organ,Mus musculus [54],8.15%
same,Dose/organ,Mus musculus [55],10.09%
same,Dose/g,Mus musculus [56],14.39%
same,Dose/organ,Mus musculus [57],0.85%
same,Dose/organ,Mus musculus [58],2.73%
